In patent publication US20260137819A1 (Radionetics Oncology, Inc., priority 2022, published 2026):

These molecules were tested against T1, human follicle-stimulating hormone receptor (FSHR) (Homo sapiens, UniProt P23945) (assay: Measurement of agonist cAMP production by activation of human FSHR). Conditions: CHO-K1 human FSHR cells, 30 minutes at 37° C., HTRF cAMP kit; read-out: hFSHR Agonist cAMP EC50.
T1 construct: host or cells: CHO-K1
T1 sequence (P23945 18-695): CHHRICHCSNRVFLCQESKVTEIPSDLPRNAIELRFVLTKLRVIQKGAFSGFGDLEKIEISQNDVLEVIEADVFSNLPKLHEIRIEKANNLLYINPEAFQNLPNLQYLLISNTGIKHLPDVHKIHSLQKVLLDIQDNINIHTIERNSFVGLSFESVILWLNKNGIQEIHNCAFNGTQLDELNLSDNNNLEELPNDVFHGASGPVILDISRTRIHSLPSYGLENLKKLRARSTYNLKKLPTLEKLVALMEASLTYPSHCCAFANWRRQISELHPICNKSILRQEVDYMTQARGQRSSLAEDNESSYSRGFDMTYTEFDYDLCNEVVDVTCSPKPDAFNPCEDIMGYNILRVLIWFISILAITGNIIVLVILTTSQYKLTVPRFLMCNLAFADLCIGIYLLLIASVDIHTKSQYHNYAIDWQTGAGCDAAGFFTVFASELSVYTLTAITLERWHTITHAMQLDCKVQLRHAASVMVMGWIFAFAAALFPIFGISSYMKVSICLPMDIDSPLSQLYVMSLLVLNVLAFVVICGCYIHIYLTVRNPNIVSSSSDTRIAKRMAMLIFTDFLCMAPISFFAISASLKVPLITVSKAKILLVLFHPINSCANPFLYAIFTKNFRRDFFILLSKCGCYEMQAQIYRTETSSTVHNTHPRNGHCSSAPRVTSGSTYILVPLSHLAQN
Format: cell-based
How it was run: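 cAMP output was measured by HTRF after 30 min at 37 °C agonist exposure (0–10,000 nM final) in stably FSHR-transfected CHO-K1 cells. Lysate cAMP was read off a standard curve and fitted to obtain half-maximal EC50.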

Structure (SMILES)	EC50 [nM]
COc1cc2c(cc1-c1cccc(NC(=O)[C@H](CS(=O)(=O)O)NC(=O)CN3CCN(CC(=O)O)CCN(CC(=O)O)CCN(CC(=O)O)CC3)c1)-c1c(c(C(=O)N3CCOCC3(C)C)nn1-c1cc(Cl)cc(Cl)c1)CO2 [Compound 33, (R)-2,2′,2″-(10-(2-((1-((3-(1-(3,5-dichlorophenyl)-3-(3,3-dimethylmorpholine-4-carbonyl)-7-methoxy-1,4-dihydrochromeno|4,3-c|pyrazol-8-yl)phenyl)amino)-1-oxo-3-sulfopropan-2-yl)amino)-2-oxoethyl)-1,4,7,10-tetraazacyclododecane-1,4,7-triyl)triacetic acid]	> 100
COc1cc2c(cc1-c1cccc(NC(=O)CCOCCOCCOCCNC(=O)CN3CCN(CC(=O)O)CCN(CC(=O)O)CCN(CC(=O)O)CC3)c1)-c1c(c(C(=O)N3CCOCC3(C)C)nn1-c1cc(Cl)cc(Cl)c1)CO2 [Compound 18, 2,2′,2″-(10-(15-((3-(1-(3,5-dichlorophenyl)-3-(3,3-dimethylmorpholine-4-carbonyl)-7-methoxy-1,4-dihydrochromeno|4,3-c|pyrazol-8-yl)phenyl)amino)-2,15-dioxo-6,9,12-trioxa-3-azapentadecyl)-1,4,7,10-tetraazacyclododecane-1,4,7-triyl)triacetic acid]	10 to 100
COc1cc2c(cc1-c1cccc(NC(=O)CCOCCOCCOCCOCCOCCOCCNC(=O)CN3CCN(CC(=O)O)CCN(CC(=O)O)CCN(CC(=O)O)CC3)c1)-c1c(c(C(=O)N3CCOCC3(C)C)nn1-c1cc(Cl)cc(Cl)c1)CO2 [Compound 16, 2,2′,2″-(10-(24-((3-(1-(3,5-dichlorophenyl)-3-(3,3-dimethylmorpholine-4-carbonyl)-7-methoxy-1,4-dihydrochromeno[4,3-c]pyrazol-8-yl)phenyl)amino)-2,24-dioxo-6,9,12,15,18,21-hexaoxa-3-azatetracosyl)-1,4,7,10-tetraazacyclododecane-1,4,7-triyl)triacetic acid]	10 to 100

Now from value to molecule:

EC50 [nM]	Structure (SMILES)
< 10	COc1cc2c(cc1-c1cccc(NC(=O)NCCOCCOCCOCCOCCOCCOCCNC(=O)CN3CCN(CC(=O)O)CCN(CC(=O)O)CCN(CC(=O)O)CC3)c1)-c1c(c(C(=O)N3CCOCC3(C)C)nn1-c1cc(Cl)cc(Cl)c1)CO2 [Compound 7]
10 to 100	COc1cc2c(cc1-c1cccc(OCCOCCOCCOCCOCCNC(=O)[C@H](CS(=O)(=O)O)NC(=O)CN3CCN(CC(=O)O)CCN(CC(=O)O)CCN(CC(=O)O)CC3)c1)-c1c(c(C(=O)N3CC(=O)NCC3(C)C)nn1-c1cc(Cl)cc(Cl)c1)CO2 [Compound 75]
< 10	COc1cc2c(cc1-c1cncc(NCCOCCOCCOCCOCCNC(=O)[C@H](CS(=O)(=O)O)NC(=O)CN3CCN(CC(=O)O)CCN(CC(=O)O)CCN(CC(=O)O)CC3)c1)-c1c(c(C(=O)N3CCOCC3(C)C)nn1-c1cc(Cl)cc(Cl)c1)CO2 [Compound 67, (R)-2,2′,2″-(10-(20-((5-(1-(3,5-dichlorophenyl)-3-(3,3-dimethylmorpholine-4carbonyl)-7-methoxy-1,4-dihydrochromeno|4,3-c|pyrazol-8-yl)pyridin-3-yl)amino)-2,5-dioxo-4-(sulfomethyl)-9,12,15,18-tetraoxa-3,6-diazaicosyl)-1,4,7,10-tetraazacyclododecane-1,4,7-triyl)triacetic acid--2,2,2-trifluoroacetic acid (1/1)]
< 10	COc1cc2c(cc1-c1cccc(NC(=O)CCOCCOCCOCCOCCNC(=O)CCC(C(=O)O)N3CCN(CC(=O)O)CCN(CC(=O)O)CCN(CC(=O)O)CC3)c1)-c1c(c(C(=O)N3CCOCC3(C)C)nn1-c1cc(Cl)cc(Cl)c1)CO2 (stereo not shown) [Compound 28]
